Data from ChEMBL document CHEMBL5291721, “A preclinical secondary pharmacology resource illuminates target-adverse drug reaction associations of marketed drugs” (Nat Commun, 2023).
“And” between values parts separate entries of the source, which are not always exact repeats. Identical values can stand only once.

Key:
Progesterone receptor = biological target: T1, Progesterone receptor (Homo sapiens, UniProt P06401); format: functional
T1 sequence (P06401 whole entry): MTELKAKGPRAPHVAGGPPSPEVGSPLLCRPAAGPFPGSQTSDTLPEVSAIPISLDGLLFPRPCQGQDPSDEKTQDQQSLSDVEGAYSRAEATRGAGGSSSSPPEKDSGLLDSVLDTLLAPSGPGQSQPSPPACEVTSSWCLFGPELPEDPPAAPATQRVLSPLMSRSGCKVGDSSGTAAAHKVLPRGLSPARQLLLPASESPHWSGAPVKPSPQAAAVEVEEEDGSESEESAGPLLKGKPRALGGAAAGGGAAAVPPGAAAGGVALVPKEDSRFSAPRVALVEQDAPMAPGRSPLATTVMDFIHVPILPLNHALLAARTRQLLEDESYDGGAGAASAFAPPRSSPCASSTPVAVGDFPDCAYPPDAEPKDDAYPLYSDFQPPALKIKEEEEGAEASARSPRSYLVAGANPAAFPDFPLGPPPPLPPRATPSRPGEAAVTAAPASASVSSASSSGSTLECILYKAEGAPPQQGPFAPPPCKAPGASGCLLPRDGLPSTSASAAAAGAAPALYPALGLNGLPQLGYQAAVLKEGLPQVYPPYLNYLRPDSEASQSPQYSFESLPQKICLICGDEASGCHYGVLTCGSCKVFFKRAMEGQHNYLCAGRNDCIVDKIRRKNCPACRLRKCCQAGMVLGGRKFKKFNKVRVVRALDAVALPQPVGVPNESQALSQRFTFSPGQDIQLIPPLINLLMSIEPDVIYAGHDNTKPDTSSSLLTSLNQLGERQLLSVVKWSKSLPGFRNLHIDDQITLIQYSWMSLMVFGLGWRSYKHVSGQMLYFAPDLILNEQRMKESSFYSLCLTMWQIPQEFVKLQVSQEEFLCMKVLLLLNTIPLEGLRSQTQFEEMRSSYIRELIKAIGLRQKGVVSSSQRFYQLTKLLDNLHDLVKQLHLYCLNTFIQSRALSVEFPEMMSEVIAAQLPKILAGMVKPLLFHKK

[1] = biological target: Muscarinic acetylcholine receptor M3 (Homo sapiens, UniProt P20309)
[2] = biological target: Sodium-dependent dopamine transporter (Homo sapiens, UniProt Q01959)
Adenosine receptor A3 = biological target: T2, Adenosine receptor A3 (Homo sapiens, UniProt P0DMS8)
T2 sequence (P0DMS8 whole entry): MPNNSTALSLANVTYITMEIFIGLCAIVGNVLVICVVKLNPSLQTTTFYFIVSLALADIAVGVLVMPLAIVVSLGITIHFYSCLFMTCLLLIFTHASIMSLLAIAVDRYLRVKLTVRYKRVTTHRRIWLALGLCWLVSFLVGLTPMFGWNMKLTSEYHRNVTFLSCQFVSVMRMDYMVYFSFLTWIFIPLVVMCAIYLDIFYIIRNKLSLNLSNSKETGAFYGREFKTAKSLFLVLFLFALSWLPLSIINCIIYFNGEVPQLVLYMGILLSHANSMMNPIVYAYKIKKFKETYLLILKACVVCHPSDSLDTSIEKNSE

[3] = biological target: T3, Type-1 angiotensin II receptor (Homo sapiens, UniProt P30556)
T3 sequence (P30556 whole entry): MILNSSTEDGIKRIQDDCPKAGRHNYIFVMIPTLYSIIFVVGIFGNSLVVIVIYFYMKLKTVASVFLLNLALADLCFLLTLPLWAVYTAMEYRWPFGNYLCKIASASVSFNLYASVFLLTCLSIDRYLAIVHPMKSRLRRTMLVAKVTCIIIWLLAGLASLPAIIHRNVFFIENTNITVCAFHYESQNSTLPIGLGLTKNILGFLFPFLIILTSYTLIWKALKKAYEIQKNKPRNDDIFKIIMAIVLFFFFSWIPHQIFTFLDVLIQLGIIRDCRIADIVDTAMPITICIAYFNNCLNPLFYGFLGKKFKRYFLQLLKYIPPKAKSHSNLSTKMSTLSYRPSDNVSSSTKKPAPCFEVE

[4] = biological target: T4, Alpha-2B adrenergic receptor (Homo sapiens, UniProt P18089)
T4 sequence (P18089 whole entry): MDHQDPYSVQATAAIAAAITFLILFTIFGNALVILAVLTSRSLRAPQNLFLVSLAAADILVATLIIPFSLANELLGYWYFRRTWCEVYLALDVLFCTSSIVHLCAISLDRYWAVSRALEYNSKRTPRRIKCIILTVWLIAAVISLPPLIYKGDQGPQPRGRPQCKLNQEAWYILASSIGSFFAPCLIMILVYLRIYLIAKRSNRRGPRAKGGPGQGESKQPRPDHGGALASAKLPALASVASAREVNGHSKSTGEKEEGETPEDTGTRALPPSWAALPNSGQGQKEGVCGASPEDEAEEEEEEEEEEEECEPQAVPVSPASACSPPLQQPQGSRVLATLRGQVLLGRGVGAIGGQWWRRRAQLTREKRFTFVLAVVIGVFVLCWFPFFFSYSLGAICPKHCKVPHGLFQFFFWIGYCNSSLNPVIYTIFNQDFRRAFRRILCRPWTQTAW

[5] = biological target: T5, 5-hydroxytryptamine receptor 3A (Homo sapiens, UniProt P46098); format: functional
T5 sequence (P46098 whole entry): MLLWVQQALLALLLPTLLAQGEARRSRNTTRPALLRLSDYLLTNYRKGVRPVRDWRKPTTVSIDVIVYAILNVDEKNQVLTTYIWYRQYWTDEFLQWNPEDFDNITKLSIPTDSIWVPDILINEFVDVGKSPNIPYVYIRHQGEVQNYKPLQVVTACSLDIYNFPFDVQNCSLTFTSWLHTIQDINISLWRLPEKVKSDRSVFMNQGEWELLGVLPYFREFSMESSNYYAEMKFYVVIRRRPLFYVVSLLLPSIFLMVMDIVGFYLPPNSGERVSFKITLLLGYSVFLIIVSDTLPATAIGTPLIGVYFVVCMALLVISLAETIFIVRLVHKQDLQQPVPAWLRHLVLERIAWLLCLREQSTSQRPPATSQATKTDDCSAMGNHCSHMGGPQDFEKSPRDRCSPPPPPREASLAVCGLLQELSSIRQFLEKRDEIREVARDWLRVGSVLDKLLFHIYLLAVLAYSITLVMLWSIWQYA

Histamine H2 receptor = Histamine H2 receptor (Homo sapiens, UniProt P25021); format: functional, cell-based
[6] = biological target: Growth hormone secretagogue receptor type 1 (Homo sapiens, UniProt Q92847)
Also: assay procedure not described here.

Chain of Growth hormone secretagogue receptor type 1 (Q92847 whole entry): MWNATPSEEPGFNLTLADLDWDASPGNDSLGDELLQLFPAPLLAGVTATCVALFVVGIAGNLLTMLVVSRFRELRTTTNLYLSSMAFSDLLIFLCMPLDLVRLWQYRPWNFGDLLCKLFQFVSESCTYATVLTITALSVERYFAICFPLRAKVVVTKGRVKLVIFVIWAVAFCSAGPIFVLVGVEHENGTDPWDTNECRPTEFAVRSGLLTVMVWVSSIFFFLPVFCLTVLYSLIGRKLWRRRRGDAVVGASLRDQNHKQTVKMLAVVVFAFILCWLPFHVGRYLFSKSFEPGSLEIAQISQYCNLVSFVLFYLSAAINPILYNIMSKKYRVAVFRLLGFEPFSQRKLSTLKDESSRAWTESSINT
Chain of Sodium-dependent dopamine transporter (Q01959 whole entry): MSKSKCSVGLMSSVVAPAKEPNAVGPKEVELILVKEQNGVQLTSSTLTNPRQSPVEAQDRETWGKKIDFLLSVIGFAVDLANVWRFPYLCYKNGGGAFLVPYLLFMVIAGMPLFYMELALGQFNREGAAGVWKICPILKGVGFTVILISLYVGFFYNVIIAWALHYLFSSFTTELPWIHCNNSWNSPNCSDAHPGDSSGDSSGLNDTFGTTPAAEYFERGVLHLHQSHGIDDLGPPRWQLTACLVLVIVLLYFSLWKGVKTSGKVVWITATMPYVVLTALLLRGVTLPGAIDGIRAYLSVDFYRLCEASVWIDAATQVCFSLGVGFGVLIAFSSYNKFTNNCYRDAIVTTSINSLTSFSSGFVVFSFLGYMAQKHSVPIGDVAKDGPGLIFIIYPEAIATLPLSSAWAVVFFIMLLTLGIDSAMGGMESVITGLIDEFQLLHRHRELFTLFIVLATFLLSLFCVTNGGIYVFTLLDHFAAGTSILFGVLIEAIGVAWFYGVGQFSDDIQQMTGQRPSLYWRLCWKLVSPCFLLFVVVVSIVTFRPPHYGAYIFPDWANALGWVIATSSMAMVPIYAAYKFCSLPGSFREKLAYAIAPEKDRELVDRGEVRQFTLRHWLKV
Chain of Muscarinic acetylcholine receptor M3 (P20309 whole entry): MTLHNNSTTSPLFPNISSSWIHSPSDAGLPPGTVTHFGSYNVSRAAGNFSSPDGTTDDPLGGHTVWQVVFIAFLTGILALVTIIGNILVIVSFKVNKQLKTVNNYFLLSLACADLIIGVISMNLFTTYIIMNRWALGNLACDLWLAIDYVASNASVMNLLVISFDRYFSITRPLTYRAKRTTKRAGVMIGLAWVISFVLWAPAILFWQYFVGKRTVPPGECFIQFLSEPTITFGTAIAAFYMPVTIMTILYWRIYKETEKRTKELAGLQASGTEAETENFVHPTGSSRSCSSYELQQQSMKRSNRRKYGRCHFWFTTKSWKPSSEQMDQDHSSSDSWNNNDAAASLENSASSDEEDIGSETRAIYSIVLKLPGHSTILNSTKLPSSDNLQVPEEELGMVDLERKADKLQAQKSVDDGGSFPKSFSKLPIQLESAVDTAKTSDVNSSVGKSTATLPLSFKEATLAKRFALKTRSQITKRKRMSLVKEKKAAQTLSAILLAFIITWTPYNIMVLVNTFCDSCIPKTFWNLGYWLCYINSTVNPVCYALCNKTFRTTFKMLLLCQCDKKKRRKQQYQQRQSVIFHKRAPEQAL
Chain of Histamine H2 receptor (P25021 whole entry): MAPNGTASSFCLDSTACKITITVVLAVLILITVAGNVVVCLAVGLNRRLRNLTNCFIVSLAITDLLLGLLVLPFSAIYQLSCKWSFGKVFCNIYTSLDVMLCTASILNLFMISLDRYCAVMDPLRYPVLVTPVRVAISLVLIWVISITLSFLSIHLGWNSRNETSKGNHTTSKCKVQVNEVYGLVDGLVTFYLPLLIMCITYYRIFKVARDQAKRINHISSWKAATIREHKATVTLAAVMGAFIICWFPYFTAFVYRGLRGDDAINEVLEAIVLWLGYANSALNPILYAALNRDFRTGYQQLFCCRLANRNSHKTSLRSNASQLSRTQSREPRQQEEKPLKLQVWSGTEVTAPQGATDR

Row | Compound | AC50 (Progesterone receptor) [µM] | AC50 [1] [µM] | AC50 [2] [µM] | AC50 (Adenosine receptor A3) | AC50 [3] [µM] | AC50 [4] [µM] | AC50 [5] [µM] | AC50 (Histamine H2 receptor) [µM] | AC50 [6] [µM]
1 | Nc1nc(/C(=C/CC(=O)O)C(=O)N[C@@H]2C(=O)N3C(C(=O)O)=CCS[C@H]23)cs1 [CEFTIBUTEN] | > 30 | > 30 | > 30 | > 30 µM | > 30 | > 30 | > 30 | > 30 | > 30
2 | CC(=O)OCC(=O)[C@@]12N=C(C)O[C@@H]1C[C@H]1[C@@H]3CCC4=CC(=O)C=C[C@]4(C)[C@H]3[C@@H](O)C[C@@]12C [DEFLAZACORT] | – | > 30 | > 30 | > 30 µM | > 30 | > 30 | > 30 | > 30 | > 30
3 | CCCCc1ncc(/C=C(\Cc2cccs2)C(=O)O)n1Cc1ccc(C(=O)O)cc1 [EPROSARTAN] | – | > 10 | > 30 | > 10 µM | 0.0019 | > 10 | > 10 | > 10 | > 10
4 | COc1ccc2c3c1O[C@H]1[C@@H](O)C=C[C@H]4[C@@H](C2)N(C)CC[C@@]341 [CODEINE] | – | > 30 | > 30 | > 30 µM | > 30 | > 10 | > 10 | > 10 | > 30
5 | CC1(C)O[C@@H]2C[C@H]3[C@@H]4CCC5=CC(=O)C=C[C@]5(C)[C@H]4[C@@H](O)C[C@]3(C)[C@]2(C(=O)CO)O1 [DESONIDE] | – | > 30 | > 10 | > 10 µM | > 30 | > 10 | > 30 | > 10 | > 10
6 | C#C[C@]1(O)CC[C@H]2[C@@H]3CCc4cc(OC5CCCC5)ccc4[C@H]3CC[C@@]21C [QUINESTROL] | – | > 30 | > 10 | > 10 µM | > 10 | > 10 | > 30 | > 10 | > 10
7 | COc1ccc(CCN(C)CCCC(C#N)(c2cc(OC)c(OC)c(OC)c2)C(C)C)cc1OC (stereo not drawn) [GALLOPAMIL] | – | > 30 | > 30 | > 30 µM | > 30 | > 30 | > 30 | > 30 | > 30
8 | C/C(O)=C(\C#N)C(=O)Nc1ccc(C(F)(F)F)cc1 [TERIFLUNOMIDE] | > 30 | > 30 | > 30 | > 30 µM | > 30 | > 30 | > 30 | – | > 30
9 | CCc1c(Cl)c(O)c(Cl)c(O)c1C(=O)O[C@H]1[C@H](O)[C@H](OC)[C@H](OC/C2=C\C=C\C[C@H](O)/C(C)=C/[C@H](CC)[C@@H](O[C@@H]3OC(C)(C)[C@@H](OC(=O)C(C)C)[C@H](O)[C@@H]3O)/C(C)=C/C(C)=C/C[C@@H]([C@@H](C)O)OC2=O)O[C@@H]1C [FIDAXOMICIN] | > 30 | – | > 30 | 17.1 µM and > 30 µM | > 30 | > 10 | > 10 | – | > 30
10 | CCN1CCN(C(=O)N[C@@H](C(=O)N[C@@H]2C(=O)N3C(C(=O)O)=C(CSc4nnnn4C)CS[C@H]23)c2ccc(O)cc2)C(=O)C1=O [CEFOPERAZONE] | – | > 30 | > 30 | > 30 µM | > 30 | > 30 | > 30 | > 30 | > 30
11 | N#Cc1ccc([C@H]2CCc3cncn32)c(F)c1 [OSILODROSTAT] | – | > 10 | > 10 | > 10 µM | > 10 | > 10 | > 10 | – | > 10
12 | CCCc1nc(C(C)(C)O)c(C(=O)OCc2oc(=O)oc2C)n1Cc1ccc(-c2ccccc2-c2nnn[nH]2)cc1 [OLMESARTAN MEDOXOMIL] | – | > 10 | > 30 | > 10 µM | 0.0009 | > 10 | > 10 | > 10 | > 50
13 | COC(=O)C1=C(C)NC(C)=C(C(=O)OC2CCCN(Cc3ccccc3)C2)C1c1cccc([N+](=O)[O-])c1 (stereo not drawn) [BENIDIPINE] | – | > 30 | 12 | 3.5 µM | > 30 | > 30 | > 30 | > 30 | 26
14 | CC(C)(C)c1cc(C(C)(C)C)c(NC(=O)c2c[nH]c3ccccc3c2=O)cc1O [IVACAFTOR] | – | > 30 | 11.2 | 2.3 µM | 26.9 | > 10 | > 30 | > 10 | > 30
15 | C[C@]1(O)CC[C@H]2[C@@H]3CCC4=CC(=O)CC[C@]4(C)[C@@]3(F)[C@@H](O)C[C@@]21C [FLUOXYMESTERONE] | – | > 30 | > 10 | > 10 µM | > 10 | > 30 | > 30 | > 30 | > 10
16 | CN1C(=O)C(O)N=C(c2ccccc2)c2cc(Cl)ccc21 (stereo not drawn) [TEMAZEPAM] | – | > 10 | > 10 | > 30 µM | > 30 | > 10 | > 30 | > 10 | > 30
17 | CCCC(=O)O[C@]1(C(=O)CO)CC[C@H]2[C@@H]3CCC4=CC(=O)CC[C@]4(C)[C@H]3[C@@H](O)C[C@@]21C [HYDROCORTISONE BUTYRATE] | – | > 30 | > 10 | > 10 µM | > 10 | > 10 | > 30 | > 10 | > 10
18 | CN1CCC(=C2c3ccccc3CCc3sccc32)CC1 [PIZOTYLINE] | – | > 10 | 13.4 | > 30 µM | > 30 | 0.51 | 1.4 | > 10 | > 30
